Measurements from patent US4265901A, “2-Oxybenzimidazoline compounds” (priority 1979, dated 1981).
Structures can show the parent of a compound that is named as a salt.

Experiments:
[1] = tested on: Cotton; assay: Pre-emergence herbicide test, cotton; format: in vivo
Experimental: (§1) In this evaluation, each compound to be tested was dissolved in a 1:1 mixture of acetone and ethanol containing a small amount of Toximul R and Toximul S (each a sulfonate/nonionic blend produced by Stepan Chemical Company, Northfield, Illinois). The solution was then diluted with deionized water to a composition of the following concentrations, by weight: Plant species used as indicators of herbicidal activity were planted in galvanized pans (flats) 31.5 cm. long, 21.5 cm. wide, and 8.0 cm. deep. The bottoms of the flats had holes to facilitate drainage. The soil used was a 1:1 ratio by volume of masonry sand and shredded top soil. Flats that were to receive preemergence treatments were planted one day prior to, or on the same day treatments were applied. Flats that were to receive postemergence treatments were planted 9 days prior to treatment and placed in a growth chamber until the day of treatment. In the growth chamber, flats received 12 to 18 hours of light per day and were subject to temperatures of 75° to 85° F. The formulated test compound was applied uniformly to the indicator species with a modified DeVilbiss atomizer using air pressure of 3 to 5 psi. Each flat received 12.5 ml. of spray solution which was equal to 200 gallons/acre total spray volume. Plants were maintained in a greenhouse after treatment. Herbicidal effects of chemicals were evaluated by two injury rating systems 18 days after preemergence applications and 14 days after postemergence applications. The degree of plant injury was based on a 1 to 5 scale and a single numerical rating was assigned to each test species as follows: […]

[2] = tested on: Wild Oat; assay: Pre-emergence herbicide test, wild oat; format: in vivo
Experimental: as §1

[3] = tested on: Wheat; assay: Pre-emergence herbicide test, wheat; format: in vivo
Experimental: as §1

[4] = tested on: adult housefly; assay: Efficacy against adult housefly, calves jugular infusion (Example 18); format: in vivo, Musca domestica; conditions: Evaluation I, calf 988, jugular infusion 0.66 mg/kg/day to day 10; day/hours per line
Experimental: (§2) For the adult housefly test, 10 ml. of serum were employed to saturate a wick which was placed in a petri dish. Twenty-five chilled houseflies were placed in the dish which was then incubated for 24 hours at 27° C. and 50% relative humidity. After the end of the twenty-four hours, the efficacy of the candidate compound was determined as the percent mortality of housefly, adjusted as for blowfly by normal mortality in a control and reported according to the same scale as above.
On each day of the evaluation, immediately preceding that day's injection, a sample of blood was withdrawn from each calf. The concentration of the compound in the blood was determined; and the efficacy of the compound against adult housefly and blowfly larvae was assayed by the method described in Example 15. Efficacy was reported, however, as the percent of blowfly larvae or adult housefly which was killed. […]
Three evaluations were conducted sequentially with the compound of Example 2, 2-hydroxy-2-(1,1,2,2-tetrafluoroethyl)-4-nitro-6-(trifluoromethyl)benzimidazoline, sodium salt, administered daily to calves by jugular infusion of a solution of the compound in distilled water. As described in the preceding example, blood samples were withdrawn and analyzed for concentration of the compound and efficacy against adult housefly and blowfly larvae.

[5] = tested on: adult housefly; assay: Efficacy against adult housefly, calves subcutaneous pellets (Example 20); format: in vivo, Musca domestica; conditions: calf 651, subcutaneous pellets about 5 mg./kg.; test day per line
Experimental: as §2
The compound of Example 2, 2-hydroxy-2-(1,1,2,2-tetrafluoroethyl)-4-nitro-6-(trifluoromethyl)benzimidazoline sodium salt, was formulated neat into tablets, each containing about 85 mg. of compound.
These pellets were implanted in the right shoulder area of two calves, weighing 400 and 373 kilograms respectively, to supply a dose of about 5 mg./kg. (animals #651 and 1511, respectively). Another calf (animal #656) was maintained as a control and two additional calves weighing 336 and 350 kilograms (animals #654 and 655, respectively) received pellets of 2-(1,1,2,2-tetrafluoroethyl)-4-nitro-6-(trifluoromethyl)benzimidazole, to supply a dose of about 5 mg./kg. of compound.
As described in preceding examples, blood samples were withdrawn and analyzed for the concentration of the compound in the blood and percent efficacy against adult housefly and blowfly larvae.

[6] = tested on: Barnyard Grass; assay: Pre-emergence herbicide test, barnyard grass; format: in vivo
Experimental: as §1

[7] = tested on: Sugar Beet; assay: Pre-emergence herbicide test, sugar beet; format: in vivo
Experimental: as §1

[8] = tested on: Soybean; assay: Pre-emergence herbicide test, soybean; format: in vivo
Experimental: as §1

[9] = tested on: Jimsonweed; assay: Pre-emergence herbicide test, jimsonweed; format: in vivo
Experimental: as §1

[10] = tested on: Alfalfa; assay: Pre-emergence herbicide test, alfalfa; format: in vivo
Experimental: as §1

[11] = tested on: Mustard; assay: Pre-emergence herbicide test, mustard; format: in vivo
Experimental: as §1

[12] = tested on: blowfly larvae; assay: Blowfly larvae fed on serum of dosed guinea pigs; format: in vivo, Phormia regina; conditions: guinea pig, serum at 24 hours
Experimental: Representative compounds of the present invention were evaluated against larvae of blowfly (Phormia regina) and against adult housefly (Musca domestica). In these evaluations, the candidate compound was administered to each of two male guinea pigs weighing from about 400 grams to about 1000 grams. Administration was via the intraperitoneal route, the compound having been formulated in sesame oil. At twenty-four hours following administration of the compound, blood was withdrawn from the guinea pigs. The serum portion was isolated and blowfly larvae and adult houseflies were fed on the serum. For the blowfly assay, 10 ml. of serum were placed in a test tube with a wick onto which 50 blowfly larvae were placed. The covered test tube was incubated at 27° C. for 24 hours, at which time efficacy of the candidate compound was determined as the percent mortality of the blowfly larvae, adjusted by normal mortality in a control, and reported according to the following rating scale:
Percent mortality was determined separately for each guinea pig.

With `O=[N+]([O-])c1cc(C(F)(F)F)cc2c1NC(O)(C(F)(F)C(F)F)N2` (stereo not drawn) [Example 2, 2-Hydroxy-2-(1,1,2,2-Tetrafluoroethyl)-4-Nitro-6-(Trifluoromethyl)Benzimidazoline, Sodium Salt, and Hydrate] the plant injury rating ([1]; 1/2 lb/A) was 1 (no injury), the plant injury rating ([1]; 1/4 lb/A) was 1 (no injury) and the plant injury rating ([1]; 2 lb/A) was 1 (no injury). For the same compound, the plant injury rating ([1]; 4 lb/A) was 2B, the plant injury rating ([2]; 1/2 lb/A) was 1 (no injury) and the plant injury rating ([2]; 1/4 lb/A) was 1 (no injury). The plant injury rating ([2]; 1 lb/A) was 1 (no injury), the plant injury rating ([2]; 2 lb/A) was 2 (slight injury) and the plant injury rating ([2]; 4 lb/A) was 5 (death). For the same compound, the plant injury rating ([3]; 1/2 lb/A) was 1 (no injury), the plant injury rating ([3]; 1/4 lb/A) was 1 (no injury) and the plant injury rating ([3]; 1 lb/A) was 1 (no injury). For the same compound, the plant injury rating ([3]; 2 lb/A) was 1 (no injury), the plant injury rating ([3]; 4 lb/A) was 3BS and the “% Efficacy, Adult Housefly” value [4] was 100%. For the same compound, the “% Efficacy, Adult Housefly” value [5] was 100%, the plant injury rating ([6]; 1/2 lb/A) was 1 (no injury) and the plant injury rating ([6]; 1/4 lb/A) was 1 (no injury). The plant injury rating ([6]; 2 lb/A) was 1 (no injury), the plant injury rating ([6]; 4 lb/A) was 2BS and the plant injury rating ([7]; 1/2 lb/A) was 2S. The plant injury rating ([7]; 1/4 lb/A) was 1 (no injury), the plant injury rating ([7]; 2 lb/A) was 5D and the plant injury rating ([7]; 4 lb/A) was 5N. The plant injury rating ([8]; 1/2 lb/A) was 1 (no injury), the plant injury rating ([8]; 1/4 lb/A) was 1 (no injury) and the plant injury rating ([8]; 1 lb/A) was 1 (no injury). For the same compound, the plant injury rating ([8]; 2 lb/A) was 1 (no injury), the plant injury rating ([8]; 4 lb/A) was 2B and the plant injury rating ([9]; 1/2 lb/A) was 1 (no injury). The plant injury rating ([9]; 1/4 lb/A) was 1 (no injury), the plant injury rating ([9]; 1 lb/A) was 1 (no injury) and the plant injury rating ([9]; 2 lb/A) was 3BS. The plant injury rating ([9]; 4 lb/A) was 5D, the plant injury rating ([10]; 1/2 lb/A) was 3SR and the plant injury rating ([10]; 1/4 lb/A) was 1 (no injury). For the same compound, the plant injury rating ([10]; 2 lb/A) was 5D, the plant injury rating ([10]; 4 lb/A) was 5N and the plant injury rating ([11]; 1/2 lb/A) was 2S. For the same compound, the plant injury rating ([11]; 1/4 lb/A) was 1 (no injury), the plant injury rating ([11]; 1 lb/A) was 4B and the plant injury rating ([11]; 2 lb/A) was 5D. The plant injury rating ([11]; 4 lb/A) was 5D.

`O=[N+]([O-])c1cc(Cl)cc2c1NC(O)(C(F)F)N2` (stereo not drawn) [Example 5, 2-Hydroxy-2-(Difluoromethyl)-4-Nitro-6-Chlorobenzimidazoline, Calcium Salt] was tested, and the “Efficacy Rating, Blowfly Larvae” value ([12]; 1 mg./kg. i.p.) was 0 (none dead) and the “Efficacy Rating, Blowfly Larvae” value ([12]; 5 mg./kg. i.p.) was 0 (none dead).

For `O=[N+]([O-])c1cc(C(F)(F)F)cc2c1NC(O)(C(F)(F)C(F)F)N2O` (stereo not drawn) [Example 12, 1,2-Dihydroxy-2-(1,1,2,2-Tetrafluoroethyl)-4-Nitro-6-(Trifluoromethyl)Benzimidazoline], the plant injury rating ([1]; 1/2 lb/A) was 1 (no injury), the plant injury rating ([1]; 1 lb/A) was 1 (no injury) and the plant injury rating ([1]; 2 lb/A) was 1 (no injury). The plant injury rating ([2]; 1/2 lb/A) was 1 (no injury), the plant injury rating ([2]; 1 lb/A) was 1 (no injury) and the plant injury rating ([2]; 2 lb/A) was 2B. For the same compound, the plant injury rating ([3]; 1/2 lb/A) was 1 (no injury), the plant injury rating ([3]; 1 lb/A) was 1 (no injury) and the plant injury rating ([3]; 2 lb/A) was 1 (no injury). The plant injury rating ([6]; 1/2 lb/A) was 1 (no injury), the plant injury rating ([6]; 1 lb/A) was 1 (no injury) and the plant injury rating ([6]; 2 lb/A) was 1 (no injury). For the same compound, the plant injury rating ([7]; 1/2 lb/A) was 1 (no injury), the plant injury rating ([7]; 1 lb/A) was 1 (no injury) and the plant injury rating ([7]; 2 lb/A) was 3S. The plant injury rating ([8]; 1/2 lb/A) was 1 (no injury), the plant injury rating ([8]; 1 lb/A) was 1 (no injury) and the plant injury rating ([8]; 2 lb/A) was 1 (no injury). The plant injury rating ([9]; 1/2 lb/A) was 1 (no injury), the plant injury rating ([9]; 1 lb/A) was 1 (no injury) and the plant injury rating ([9]; 2 lb/A) was 1 (no injury). For the same compound, the plant injury rating ([10]; 1/2 lb/A) was 1 (no injury), the plant injury rating ([10]; 1 lb/A) was 1 (no injury) and the plant injury rating ([10]; 2 lb/A) was 3SB. The plant injury rating ([11]; 1/2 lb/A) was 1 (no injury), the plant injury rating ([11]; 1 lb/A) was 1 (no injury) and the plant injury rating ([11]; 2 lb/A) was 2S.
